Laboratory results taken from PubChem BioAssay (NCI).
“And” between values parts separate entries of the source, which are not always exact repeats. Equal values may be shown once.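 Results reflect a 48-hour exposure of cells in 96-well plates to compound at five concentrations. Abbreviation: GI50, concentration required for 50% inhibition of growth. Definition used: TGI = concentration required for complete inhibition of growth.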

Tests used:
Assay in all cases: DTP human tumour cell line panel, 48 h
[1] = test system: EKVX NSCLC
[2] = test system: HS 578T breast
[3] = test system: T-47D breast
[4] = test system: NCI-H460 lung
[5] = test system: MALME-3M melanoma
[6] = test system: SK-MEL-5 melanoma
[7] = test system: 786-0 renal
[8] = test system: SK-OV-3 ovarian
[9] = test system: SNB-75 CNS
[10] = test system: HT29 colon

SMILES | GI50 [1] | TGI [1] | GI50 [2] | TGI [2] | GI50 [3] | TGI [3] | GI50 [4] | TGI [4] | GI50 [5] | TGI [5] | GI50 [6] | TGI [6] | GI50 [7] | TGI [7] | GI50 [8] | TGI [8] | GI50 [9] | TGI [9] | GI50 [10] | TGI [10]
O=C(Nc1cccc(Cl)c1Cl)c1cccc(NC2=C(Cl)C(=O)N(Cc3ccccc3)C2=O)c1 | 34.2 µM | 89.2 µM | 28.7 µM | > 100 µM | > 100 µM | > 100 µM | 22.4 µM | 94.7 µM | > 100 µM | > 100 µM | 20.1 µM | > 100 µM | 49.8 µM | > 100 µM | > 100 µM | > 100 µM | > 100 µM | > 100 µM | 79.9 µM | > 100 µM
O=C1/C(=C\c2cccn2Cc2ccccc2)c2ccccc2N1c1c(Cl)cccc1Cl | 1.42 µM | > 28.1 µM | > 100 µM | > 100 µM | 0.266 µM | 1.93 µM | 4.43 µM | > 100 µM | 3.22 µM | > 100 µM | 3.02 µM | > 100 µM | > 100 µM | > 100 µM | > 100 µM | > 100 µM | > 22.9 µM | > 100 µM | 10.7 µM | > 100 µM
Cc1c[n+](Cc2ccc3ccccc3c2)cn1Cc1ccc2ccccc2c1 | 2.15 µM | 9.71 µM | 2.22 µM | 6.65 µM | 0.371 µM | 2.75 µM | 1.72 µM | 3.65 µM | 1.29 µM | 3.02 µM | 0.688 µM | 1.94 µM | 1.71 µM | 3.63 µM | 2.16 µM | 6.12 µM | 1.09 µM | 2.51 µM | 1.07 µM | 2.53 µM
CC(=O)Oc1ccccc1C(=O)N=C1[Se]CCCN1C(=O)c1ccccc1OC(C)=O | – | – | 2.07 µM | 6.32 µM | 3.44 µM | 13.5 µM | 2 µM | 5.5 µM | 2.31 µM | 4.9 µM | 2.01 µM | 4.13 µM | 2.14 µM | 4.21 µM | 3.4 µM | 6.16 µM | 2.01 µM | 4.69 µM | 3.15 µM | 8.73 µM
O=C(N/N=C\c1cc(Br)ccc1O)c1ccncc1 | 1.8 µM | 38.5 µM | 13.4 µM | > 100 µM | 2.19 µM | 62.5 µM | 1.25 µM | > 100 µM | 5.76 µM | 78.5 µM | 2.6 µM | 21.8 µM | 2.46 µM | > 100 µM | 4.79 µM | > 100 µM | 4.83 µM | 51.1 µM | 5.7 µM | > 100 µM
O=C(Nc1cccc(Cl)c1)c1cc2ccccc2cc1O | 2.76 µM and 2.05 µM | > 100 µM | 2.12 µM and 3.42 µM | – | 1.88 µM and 1.73 µM | 8.92 µM and 6.82 µM | 2.47 µM and 2.48 µM | > 100 µM | 0.71 µM | 21.9 µM | 1.24 µM and 0.661 µM | 4.15 µM and 2.5 µM | 3.6 µM and 3.12 µM | > 100 µM | 1.23 µM | 4.95 µM | 1.62 µM and 1.55 µM | > 100 µM | 45.8 µM and 29.1 µM | > 100 µM
